Among the data in PubChem BioAssay (NCI) are GI50 and TGI values, retold here.

Each structure is given as a SMILES string.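 Test compounds were applied to cells in 96-well plates for 48 hours at 5 doses. GI50 is the concentration that inhibits growth by half. TGI: concentration producing complete growth inhibition.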

What all share (assay): growth of human tumour cells (NCI), 48 h
The test system of assay [1] is SK-MEL-5 melanoma.
For assay [2], the system named is CCRF-CEM leukemia.
Assay [3] relates to COLO 205 colon.
In assay [4] the test system is SW-620 colon.
Assay [5] concerns MDA-MB-231 breast.
The subject of assay [6] is TK-10 renal.
The test system of assay [7] is CAKI-1 renal.
For assay [8], the system named is A549 NSCLC.
Assay [9] has as its system SK-MEL-2 melanoma.
Assay [10] has as its system RXF 393 renal.

For `COc1cc(S(=O)(=O)Nc2ccc(C(=O)/C=C/c3ccc(O)cc3)cc2)ccc1F`, the GI50 in assay [1] is above 100 µM; in assay [2] it was above 100 µM; in [3], above 100 µM; in assay [4] it was above 100 µM; in assay [5] it was 0.0267 µM; in [6], 47 µM. Besides, the GI50 in assay [7] and in assay [8] was above 100 µM throughout. The TGI in [1] is above 100 µM; in [2], above 100 µM; in [3] it was above 100 µM; in assay [4], above 100 µM; in assay [5], 9.12 µM; in assay [6], above 100 µM. Moreover, the TGI in [7] and in assay [8] was above 100 µM throughout.
Take `CC1=NN(c2nc(N)nc(-c3sccc3N)n2)C(C)(C)C1`: the TGI in [1], in assay [2], in assay [3], in [4], in assay [5] and in assay [6] was above 100 µM throughout. Besides, the TGI in [7] and in assay [8] was above 100 µM in each case.
As for `COC(=O)C1=C(C(=O)OC)SC(=CC#CC=C2SC(C(=O)OC)=C(C(=O)OC)S2)S1`, the TGI in assay [1] was above 86.5 µM; in assay [2] it was above 100 µM; in assay [3], above 54.9 µM; in assay [9], 64.3 µM; in assay [4] it was above 52 µM; in assay [6] it was 23.9 µM. Moreover, the results for the TGI in [7] and in assay [8] were above 68.3 µM and above 100 µM, respectively.
As for `CCC1=C(C(C)=O)[C@@H]2CCCCC[C@@H](C(=O)OC)C2C1=O` (stereo partly specified), the TGI in assay [1], in assay [2], in assay [3], in assay [9], in [4] and in assay [6] was above 100 µM throughout. Besides, the TGI in assay [7], in [10] and in assay [8] was above 100 µM each time.
As for `CC(C)N1CC2CC(CN(C(=O)c3ccccc3)C2)C1`, the TGI in assay [1], in [2], in [3], in assay [9], in [4] and in assay [6] was above 100 µM each time. Also, the TGI in assay [7], in assay [10] and in [8] was above 100 µM each time.
In the case of `N#C/C(C(=O)Nc1ccc(Cl)cc1)=C(/N)N1CCCC1`, the TGI in assay [1], in assay [2], in assay [3], in [9], in assay [4] and in [7] was above 100 µM in each case. In [8], this molecule gave a TGI above 100 µM.
Regarding `Cc1cc(C)c2c(=O)cc(-c3cccc(F)c3)[nH]c2n1`, the TGI in [1] was 6.38 µM; in assay [3] it was 0.354 µM; in assay [5], 4.17 µM; in assay [6] it was above 100 µM; in assay [7], above 66.3 µM; in [8], above 100 µM.
For `S=C(N/N=C\C(=N/NC(=S)N1CCCCC1)c1ccccc1)N1CCCCC1`, the TGI in assay [1] was 3.32 µM; in [3] it was 3.86 µM; in assay [4], 3.83 µM; in assay [6] it was 3.25 µM; in assay [7] it was 4.66 µM; in assay [10], 3.33 µM. Moreover, the TGI in assay [8] was 5.62 µM.
As to `c1cncc(CC2(c3cc4ccccc4[nH]3)OCCO2)c1`, the TGI in [1], in assay [2], in assay [3], in assay [9], in assay [4] and in assay [5] was above 100 µM in each case. Moreover, the TGI in assay [6], in [7] and in [8] was above 100 µM throughout.
Take `CCOc1ccc(Nc2nc(N)nc(N)c2N)cc1`: the TGI is above 100 µM in [1]; above 100 µM in [2]; 70.2 µM in assay [3]; above 100 µM in [9]; above 100 µM in assay [4]; above 100 µM in assay [5]. The TGI in assay [6] was above 100 µM; in assay [7], 70.3 µM; in assay [8] it was above 100 µM.
Consider `CSc1nc(NC(C)C)c2c(n1)Sc1nc3ccccc3n1N=C2`, for which the TGI in [1] was 23.9 µM; in assay [2] it was above 100 µM; in [3] it was above 100 µM; in assay [9], 47.3 µM; in [4], 35.3 µM; in assay [5], 30.2 µM. Also, the values for the TGI in assay [6], in assay [7] and in [8] were 36.8 µM, above 100 µM and 38.6 µM, respectively.
As to `Cn1c(=O)c(-c2ccccc2)c(O)c2ccccc21`, the TGI in assay [1], in assay [2], in [3], in [4], in assay [5] and in assay [6] was above 100 µM each time. The TGI in [7], in assay [10] and in assay [8] was above 100 µM in each case.
For `CCCCC1=C(C(=O)N2CCOCC2)C2(OCCO2)C1=O`, the TGI in assay [1] was 33.2 µM; in assay [2], above 100 µM; in [3] it was 40.2 µM; in [9], 71.7 µM; in assay [4], 81.9 µM; in assay [6], above 100 µM. For the same molecule, the TGI is 78.1 µM in [7], 50.3 µM in assay [10] and 87.7 µM in [8].
Take `COc1cc(-c2n/c(=C\c3c(O)[nH]c4ccc(Cl)cc34)cc3c2=Nc2ccccc2-3)ccc1F`: the GI50 is 2.84 µM in assay [1]; 2.39 µM in [2]; 1.33 µM in assay [4]; 1.56 µM in assay [5]; 2.51 µM in assay [6]; 2.55 µM in assay [7]. Besides, the GI50 in assay [10] was 1.71 µM; in assay [8], 1.76 µM. For the same molecule, the TGI in assay [1] was 10.8 µM; in assay [2], above 100 µM; in [4], 2.94 µM; in assay [5] it was 3.22 µM; in assay [6], 4.43 µM; in [7], 8.66 µM. Further, the results for the TGI in assay [10] and in [8] were 3.29 µM and 3.38 µM, respectively.
